From patent publication EP4793292A1, “POLYPEPTIDE DERIVATIVE, PHARMACEUTICAL COMPOSITION THEREOF AND USE THEREOF” (Biocells (Beijing) Biotech Co., Ltd., priority 2023, dated 2025)
Starred links: 1 amine or outer side, 2 acyl side, 3 side chain; linkers in the order of their positions; H or OH if unused. Non-standard residues stand in square brackets, D forms with d. Residues, ends and D or L forms follow the SMILES beside them. Groups on a side chain read outwards from the residue. No end group written: not given here. *: point of attachment. C18 diacid = O=C(O)CCCCCCCCCCCCCCCCC(=O)*; γGlu = O=C(O)[C@H](CCC(=O)[*:2])N[*:1]; Palmitoyl = CCCCCCCCCCCCCCCC(=O)*; Lauroyl = CCCCCCCCCCCC(=O)*; AEEA = NCCOCCOCC(=O)O

What was measured:
[1] = Determination of the half-life of polypeptides in rats (plasma LC-MS/MS); assay type: in vivo; set-up: AUClast (0-120 min): unit not given here; conditions: male SD rats, intravenous 4 mg/kg
Protocol: Plasma sample collection method: 2 male SD rats (280-300 g) were intravenously injected with PW5, PW6, PW182, and PW337 respectively, the pure peptide dose was 4 mg/kg, and the dosing volume was 2 mL/kg. At 0.5 min, 2 min, 5 min, 10 min, 15 min, 30 min, 60 min, and 120 min after intravenous injection of the drug via the tail vein, blood (400 µL/time) was collected through an indwelling jugular vein catheter into anticoagulant tubes containing EDTA-K2, and 100x protease inhibitor (1:50, v:v; Roche, 11873580001) was added. Whole blood samples were placed on ice and centrifuged (3200 g, 4°C, 10 min) within 1 hour after blood collection. Plasma was taken into a pre-cooled centrifuge tube, protease inhibitor (1:50, v:v) was added again, mixed homogeneously, and stored at -80°C.
Plasma sample processing method: Plasma samples were pipetted into a 96-well plate (50 µL/well), pure methanol (300 µL/well) was added, and mixed by vortexing (1500 rpm, 10 min). Centrifuged (4800 g, 4°C, 10 min), the supernatant was taken into a new 96-well plate (100 µL/well), a 20% aqueous methanol solution containing 0.2% formic acid (100 µL/well) was added, and mixed by vortexing (1500 rpm, 3 min). 10.0 µL was injected for LC-MS/MS analysis to obtain the drug concentration in the samples. Instrument model: (Waters TQ-XS) Chromatographic column: SHIMADZU Shim-Pack Scepter Claris C4-300 (2.1×50 mm, 1.9 µm) Detection results: Table 3. Half-life, blood drug concentration, and AUC data of the conjugates

SH-SY5Y cells = experiment: Axonal growth of RA-differentiated SH-SY5Y cells on proteoglycan (ACAN) coating; assay type: cell-based, human; conditions: PW polypeptide 2.5 µM, 72 h, proteoglycan (ACAN)-coated plate, FIG. 1
Protocol: Therefore, RA-induced differentiated SH-SY5Y can be used to simulate neuronal axonal growth in vitro and to test the effects of PW polypeptides on axonal growth.
Preparation of culture medium for SH-SY5Y: 1) DMEM/F12 + 10% FBS + 1 × penicillin-streptomycin + 1 mM sodium pyruvate; 2) DMEM/F12 + 1% FBS + 1 × penicillin-streptomycin + 1 mM sodium pyruvate. Preparation of 50 mM retinoic acid stock solution: 15.02 mg of retinoic acid was weighed and dissolved in 1 mL of dimethyl sulfoxide (DMSO), aliquoted, and frozen at -80°C. Proteoglycan (ACAN/CSPG1) is a type of chondroitin sulfate proteoglycan (CSPG). Preparation of 1 mg/mL proteoglycan stock solution: 1 mg of ACAN solid was dissolved in 1 mL of distilled water, aliquoted, and frozen at -80°C. Preparation of PW polypeptide solution for cells (1 mM): the corresponding mass of polypeptide powder was weighed, dissolved in PBS and filtered through a 0.2 µm filter membrane, aliquoted, and frozen at -20°C.
The 1 mg/mL proteoglycan was diluted to 250 µg/mL with distilled water to coat a 24-well cell culture plate: each well was coated with 3 droplets of ACAN, 2 µL per droplet. Using the culture medium containing 10% FBS, SH-SY5Y cells were seeded in the proteoglycan-coated 24-well plate (20,000 cells/well) and incubated (37°C, 5% CO2) for 20 h. The medium was replaced with a culture medium containing 1% FBS, and PW polypeptide (2.5 µM) or an equal volume of PBS solution was added. After incubation for 72 h, the cells were fixed with 4% paraformaldehyde (room temperature, 30 min), and cell morphology was photographed and recorded using a 10× optical microscope. 20-30 cells were randomly selected under each field of view, and axonal length was measured using Image J-SNT.
Data analysis: All measured axonal lengths within each proteoglycan-coated range were averaged to serve as one data point. One-way analysis of variance and Tukey's test were used to compare the differences between groups. P<0.05 was considered as a significant difference.

Row | Molecule | AUClast (0-120 min) ([1]; 0-120 min) | level at 0.5 h ([1]; rat, plasma, 30 min after injection, read-out: 30 min blood drug concentration) | half-life ([1]; rat, plasma) | effect of promoting axonal growth compared with the scrambled polypeptide (Scr, negative control) (SH-SY5Y cells) | promoting effect on axonal growth compared with PW6 (SH-SY5Y cells)
1 | CC[C@H](C)[C@H](NC(=O)[C@H](CO)NC(=O)[C@H](CCC(=O)O)NC(=O)[C@H](Cc1ccc(O)cc1)NC(=O)[C@H](CCC(=O)O)NC(=O)[C@H](CCC(N)=O)NC(=O)[C@H](CO)NC(=O)[C@H](CC(C)C)NC(=O)[C@H](CCCCNC(=O)COCCOCCNC(=O)COCCOCCNC(=O)CC[C@H](NC(=O)CCCCCCCCCCCCCCCCC(=O)O)C(=O)O)NC(=O)[C@H](CC(C)C)NC(=O)[C@H](CO)NC(=O)[C@H](CC(=O)O)NC(=O)[C@H](CC(N)=O)NC(=O)[C@H](C)NC(=O)[C@H](CCCCN)NC(=O)[C@H](CC(C)C)NC(=O)[C@H](CCCNC(=N)N)NC(=O)[C@H](CCC(=O)O)NC(=O)[C@@H](NC(=O)[C@H](Cc1c[nH]cn1)NC(=O)[C@H](CCC(=O)O)NC(=O)[C@H](C)NC(=O)[C@H](CCSC)NC(=O)[C@H](CC(=O)O)NC(=O)[C@H](CCCNC(=N)N)NC(=O)[C@H](CCCNC(=N)N)NC(=O)[C@H](CCCNC(=N)N)NC(=O)[C@H](CCC(N)=O)NC(=O)[C@H](CCCNC(=N)N)NC(=O)[C@H](CCCNC(=N)N)NC(=O)[C@H](CCCCN)NC(=O)[C@H](CCCCN)NC(=O)[C@H](CCCNC(=N)N)NC(=O)CN)[C@@H](C)O)C(N)=O [PW-182] (H-GRKKRRQRRRDMAEHTERLKANDSLK([AEEA-AEEA-γGlu-C18 diacid])LSQEYESI-NH2) | 4927113 | 64.4 µg/mL | 1.03 h | – | –
2 | PW-252: polypeptide derivative, SEQ ID NO: 47 (G[dR]KKR[dR]Q[dR]RRCDMAEHTERLK([AEEA-AEEA-γGlu-Palmitoyl])ANDSLKLSQEYESI-NH2; N-terminus assumed; SMILES CCCCCCCCCCCCCCCC(=O)N[C@@H](CCC(=O)NCCOCCOCC(=O)NCCOCCOCC(=O)NCCCC[C@H](NC(=O)[C@H](CC(C)C)NC(=O)[C@H](CCCNC(=N)N)NC(=O)[C@H](CCC(=O)O)NC(=O)[C@@H](NC(=O)[C@H](Cc1c[nH]cn1)NC(=O)[C@H](CCC(=O)O)NC(=O)[C@H](C)NC(=O)[C@H](CCSC)NC(=O)[C@H](CC(=O)O)NC(=O)[C@H](CS)NC(=O)[C@H](CCCNC(=N)N)NC(=O)[C@H](CCCNC(=N)N)NC(=O)[C@@H](CCCNC(=N)N)NC(=O)[C@H](CCC(N)=O)NC(=O)[C@@H](CCCNC(=N)N)NC(=O)[C@H](CCCNC(=N)N)NC(=O)[C@H](CCCCN)NC(=O)[C@H](CCCCN)NC(=O)[C@@H](CCCNC(=N)N)NC(=O)CN)[C@@H](C)O)C(=O)N[C@@H](C)C(=O)N[C@@H](CC(N)=O)C(=O)N[C@@H](CC(=O)O)C(=O)N[C@@H](CO)C(=O)N[C@@H](CC(C)C)C(=O)N[C@@H](CCCCN)C(=O)N[C@@H](CC(C)C)C(=O)N[C@@H](CO)C(=O)N[C@@H](CCC(N)=O)C(=O)N[C@@H](CCC(=O)O)C(=O)N[C@@H](Cc1ccc(O)cc1)C(=O)N[C@@H](CCC(=O)O)C(=O)N[C@@H](CO)C(=O)N[C@H](C(N)=O)[C@@H](C)CC)C(=O)O) | – | – | – | significant effect of promoting axonal growth | no significant difference
3 | PW-253: polypeptide derivative, SEQ ID NO: 48 (G[dR]KKR[dR]Q[dR]RRDMAEHTERLK([AEEA-AEEA-γGlu-Palmitoyl])ANDSLKLSQEYESI-NH2; N-terminus assumed; SMILES CCCCCCCCCCCCCCCC(=O)N[C@@H](CCC(=O)NCCOCCOCC(=O)NCCOCCOCC(=O)NCCCC[C@H](NC(=O)[C@H](CC(C)C)NC(=O)[C@H](CCCNC(=N)N)NC(=O)[C@H](CCC(=O)O)NC(=O)[C@@H](NC(=O)[C@H](Cc1c[nH]cn1)NC(=O)[C@H](CCC(=O)O)NC(=O)[C@H](C)NC(=O)[C@H](CCSC)NC(=O)[C@H](CC(=O)O)NC(=O)[C@H](CCCNC(=N)N)NC(=O)[C@H](CCCNC(=N)N)NC(=O)[C@@H](CCCNC(=N)N)NC(=O)[C@H](CCC(N)=O)NC(=O)[C@@H](CCCNC(=N)N)NC(=O)[C@H](CCCNC(=N)N)NC(=O)[C@H](CCCCN)NC(=O)[C@H](CCCCN)NC(=O)[C@@H](CCCNC(=N)N)NC(=O)CN)[C@@H](C)O)C(=O)N[C@@H](C)C(=O)N[C@@H](CC(N)=O)C(=O)N[C@@H](CC(=O)O)C(=O)N[C@@H](CO)C(=O)N[C@@H](CC(C)C)C(=O)N[C@@H](CCCCN)C(=O)N[C@@H](CC(C)C)C(=O)N[C@@H](CO)C(=O)N[C@@H](CCC(N)=O)C(=O)N[C@@H](CCC(=O)O)C(=O)N[C@@H](Cc1ccc(O)cc1)C(=O)N[C@@H](CCC(=O)O)C(=O)N[C@@H](CO)C(=O)N[C@H](C(N)=O)[C@@H](C)CC)C(=O)O) | – | – | – | significant effect of promoting axonal growth | no significant difference
4 | PW-259: polypeptide derivative, SEQ ID NO: 50 (G[dR]KKR[dR]Q[dR]RRDMAEHTERLK([AEEA-γGlu-Palmitoyl])ANDSLKLSQEYESI-NH2; N-terminus assumed; SMILES CCCCCCCCCCCCCCCC(=O)N[C@@H](CCC(=O)NCCOCCOCC(=O)NCCCC[C@H](NC(=O)[C@H](CC(C)C)NC(=O)[C@H](CCCNC(=N)N)NC(=O)[C@H](CCC(=O)O)NC(=O)[C@@H](NC(=O)[C@H](Cc1c[nH]cn1)NC(=O)[C@H](CCC(=O)O)NC(=O)[C@H](C)NC(=O)[C@H](CCSC)NC(=O)[C@H](CC(=O)O)NC(=O)[C@H](CCCNC(=N)N)NC(=O)[C@H](CCCNC(=N)N)NC(=O)[C@@H](CCCNC(=N)N)NC(=O)[C@H](CCC(N)=O)NC(=O)[C@@H](CCCNC(=N)N)NC(=O)[C@H](CCCNC(=N)N)NC(=O)[C@H](CCCCN)NC(=O)[C@H](CCCCN)NC(=O)[C@@H](CCCNC(=N)N)NC(=O)CN)[C@@H](C)O)C(=O)N[C@@H](C)C(=O)N[C@@H](CC(N)=O)C(=O)N[C@@H](CC(=O)O)C(=O)N[C@@H](CO)C(=O)N[C@@H](CC(C)C)C(=O)N[C@@H](CCCCN)C(=O)N[C@@H](CC(C)C)C(=O)N[C@@H](CO)C(=O)N[C@@H](CCC(N)=O)C(=O)N[C@@H](CCC(=O)O)C(=O)N[C@@H](Cc1ccc(O)cc1)C(=O)N[C@@H](CCC(=O)O)C(=O)N[C@@H](CO)C(=O)N[C@H](C(N)=O)[C@@H](C)CC)C(=O)O) | – | – | – | significant effect of promoting axonal growth | no significant difference
5 | PW-261: polypeptide derivative, SEQ ID NO: 51 (G[dR]KKR[dR]Q[dR]RRDMAEHTERLK([AEEA-γGlu-Lauroyl])ANDSLKLSQEYESI-NH2; N-terminus assumed; SMILES CCCCCCCCCCCC(=O)N[C@@H](CCC(=O)NCCOCCOCC(=O)NCCCC[C@H](NC(=O)[C@H](CC(C)C)NC(=O)[C@H](CCCNC(=N)N)NC(=O)[C@H](CCC(=O)O)NC(=O)[C@@H](NC(=O)[C@H](Cc1c[nH]cn1)NC(=O)[C@H](CCC(=O)O)NC(=O)[C@H](C)NC(=O)[C@H](CCSC)NC(=O)[C@H](CC(=O)O)NC(=O)[C@H](CCCNC(=N)N)NC(=O)[C@H](CCCNC(=N)N)NC(=O)[C@@H](CCCNC(=N)N)NC(=O)[C@H](CCC(N)=O)NC(=O)[C@@H](CCCNC(=N)N)NC(=O)[C@H](CCCNC(=N)N)NC(=O)[C@H](CCCCN)NC(=O)[C@H](CCCCN)NC(=O)[C@@H](CCCNC(=N)N)NC(=O)CN)[C@@H](C)O)C(=O)N[C@@H](C)C(=O)N[C@@H](CC(N)=O)C(=O)N[C@@H](CC(=O)O)C(=O)N[C@@H](CO)C(=O)N[C@@H](CC(C)C)C(=O)N[C@@H](CCCCN)C(=O)N[C@@H](CC(C)C)C(=O)N[C@@H](CO)C(=O)N[C@@H](CCC(N)=O)C(=O)N[C@@H](CCC(=O)O)C(=O)N[C@@H](Cc1ccc(O)cc1)C(=O)N[C@@H](CCC(=O)O)C(=O)N[C@@H](CO)C(=O)N[C@H](C(N)=O)[C@@H](C)CC)C(=O)O) | – | – | – | significant effect of promoting axonal growth | no significant difference
